Source: patent US10131652B2, “Pyrimidinyloxy benzene derivatives as herbicides” (E. I. DU PONT DE NEMOURS AND COMPANY, priority 2014, dated 2018)
Where two headings read alike, the source gives them in different places.

Experiments:
Assay in all cases: Test E pre-/postemergence plant response
Type in all cases: in vivo
[1] = tested on: field poppy (Papaver rhoeas); settings: scale 0 to 100, read-out: Plant response rating, Field Poppy; for pest or weed control at 16 g/ha: 16 g ai/ha; for pest or weed control at 31 g/ha: 31 g ai/ha; for pest or weed control at 62 g/ha: 62 g ai/ha; for pest or weed control at 125 g/ha: 125 g ai/ha
Method in brief: (§1)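 Visual scores on a 0–100 scale (100 = complete control) were assigned against untreated controls 7–21 days after treatment in a controlled environment. Compounds, formulated with solvent plus surfactant, were applied to pre-emergence silt-loam sowings or to 1- to 4-leaf plants (2–18 cm) in potting medium.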

[2] = tested on: chamomile (scentless chamomile, Matricaria inodora); settings: Tripleurospermum inodorum, scale 0 to 100, read-out: Plant response rating, Chamomile; for pest or weed control at 16 g/ha: 16 g ai/ha; for pest or weed control at 31 g/ha: 31 g ai/ha; for pest or weed control at 62 g/ha: 62 g ai/ha; for pest or weed control at 125 g/ha: 125 g ai/ha
Method in brief: as §1

[3] = tested on: winter barley (Hordeum vulgare); settings: scale 0 to 100, read-out: Plant response rating, Barley, Winter; for plant injury at 16 g/ha: 16 g ai/ha; for plant injury at 31 g/ha: 31 g ai/ha; for plant injury at 62 g/ha: 62 g ai/ha; for plant injury at 125 g/ha: 125 g ai/ha
Method in brief: as §1

[4] = tested on: wild mustard (Sinapis arvensis); settings: Brassica, scale 0 to 100, read-out: Plant response rating, Mustard, Wild; for pest or weed control at 16 g/ha: 16 g ai/ha; for pest or weed control at 31 g/ha: 31 g ai/ha; for pest or weed control at 62 g/ha: 62 g ai/ha; for pest or weed control at 125 g/ha: 125 g ai/ha
Method in brief: as §1

[5] = tested on: pigweed (Amaranthus retroflexus); settings: scale 0 to 100, read-out: Plant response rating, Pigweed; for pest or weed control at 16 g/ha: 16 g ai/ha; for pest or weed control at 31 g/ha: 31 g ai/ha; for pest or weed control at 62 g/ha: 62 g ai/ha; for pest or weed control at 125 g/ha: 125 g ai/ha
Method in brief: as §1

[6] = tested on: blackgrass (Alopecurus myosuroides); settings: scale 0 to 100, read-out: Plant response rating, Blackgrass; for pest or weed control at 16 g/ha: 16 g ai/ha; for pest or weed control at 31 g/ha: 31 g ai/ha; for pest or weed control at 62 g/ha: 62 g ai/ha; for pest or weed control at 125 g/ha: 125 g ai/ha
Method in brief: as §1

[7] = tested on: windgrass (Apera spica-venti); settings: scale 0 to 100, read-out: Plant response rating, Windgrass; for pest or weed control at 16 g/ha: 16 g ai/ha; for pest or weed control at 62 g/ha: 62 g ai/ha; for pest or weed control at 125 g/ha: 125 g ai/ha
Method in brief: as §1

[8] = tested on: downy bromegrass (Bromus tectorum); settings: scale 0 to 100, read-out: Plant response rating, Bromegrass, Downy; for pest or weed control at 16 g/ha: 16 g ai/ha; for pest or weed control at 31 g/ha: 31 g ai/ha; for pest or weed control at 62 g/ha: 62 g ai/ha; for pest or weed control at 125 g/ha: 125 g ai/ha
Method in brief: as §1

[9] = tested on: green foxtail (Setaria viridis); settings: scale 0 to 100, read-out: Plant response rating, Foxtail, Green; for pest or weed control at 16 g/ha: 16 g ai/ha; for pest or weed control at 31 g/ha: 31 g ai/ha; for pest or weed control at 62 g/ha: 62 g ai/ha; for pest or weed control at 125 g/ha: 125 g ai/ha
Method in brief: as §1

[10] = tested on: canarygrass (Phalaris minor); settings: scale 0 to 100, read-out: Plant response rating, Canarygrass; for pest or weed control at 16 g/ha: 16 g ai/ha; for pest or weed control at 31 g/ha: 31 g ai/ha; for pest or weed control at 62 g/ha: 62 g ai/ha; for pest or weed control at 125 g/ha: 125 g ai/ha
Method in brief: as §1

[11] = tested on: deadnettle (henbit deadnettle, Lamium amplexicaule); settings: scale 0 to 100, read-out: Plant response rating, Deadnettle; for pest or weed control at 16 g/ha: 16 g ai/ha; for pest or weed control at 31 g/ha: 31 g ai/ha; for pest or weed control at 62 g/ha: 62 g ai/ha; for pest or weed control at 125 g/ha: 125 g ai/ha
Method in brief: as §1

Which results are given for `FC(F)c1cc(-c2ccccc2Oc2ncc(Br)cn2)no1` [Compound 62, 5-bromo-2-[2-[5-(difluoromethyl)-3-isoxazolyl]phenoxy]pyrimidine]?
pest or weed control at 16 g/ha ([1]; post-emergence, Postemergence): 40%; pest or weed control at 31 g/ha ([1]; post-emergence, Postemergence): 55%; pest or weed control at 62 g/ha ([1]; post-emergence, Postemergence): 70%; pest or weed control at 125 g/ha ([1]; post-emergence, Postemergence): 75%; pest or weed control at 16 g/ha ([1]; pre-emergence, Preemergence): 65%; pest or weed control at 31 g/ha ([1]; pre-emergence, Preemergence): 75%; pest or weed control at 62 g/ha ([1]; pre-emergence, Preemergence): 100%; pest or weed control at 125 g/ha ([1]; pre-emergence, Preemergence): 100%; pest or weed control at 16 g/ha ([2]; post-emergence, Postemergence): 0%; pest or weed control at 31 g/ha ([2]; post-emergence, Postemergence): 5%; pest or weed control at 62 g/ha ([2]; post-emergence, Postemergence): 5%; pest or weed control at 125 g/ha ([2]; post-emergence, Postemergence): 10%; pest or weed control at 16 g/ha ([2]; pre-emergence, Preemergence): 0%; pest or weed control at 31 g/ha ([2]; pre-emergence, Preemergence): 65%; pest or weed control at 62 g/ha ([2]; pre-emergence, Preemergence): 60%; pest or weed control at 125 g/ha ([2]; pre-emergence, Preemergence): 65%; plant injury at 16 g/ha ([3]; post-emergence, Postemergence): 5%; plant injury at 31 g/ha ([3]; post-emergence, Postemergence): 10%; plant injury at 62 g/ha ([3]; post-emergence, Postemergence): 20%; plant injury at 125 g/ha ([3]; post-emergence, Postemergence): 35%; plant injury at 16 g/ha ([3]; pre-emergence, Preemergence): 0%; plant injury at 31 g/ha ([3]; pre-emergence, Preemergence): 0%; plant injury at 62 g/ha ([3]; pre-emergence, Preemergence): 5%; plant injury at 125 g/ha ([3]; pre-emergence, Preemergence): 5%; pest or weed control at 16 g/ha ([4]; post-emergence, Postemergence): 75%; pest or weed control at 31 g/ha ([4]; post-emergence, Postemergence): 100%; pest or weed control at 62 g/ha ([4]; post-emergence, Postemergence): 100%; pest or weed control at 125 g/ha ([4]; post-emergence, Postemergence): 100%; pest or weed control at 16 g/ha ([4]; pre-emergence, Preemergence): 25%; pest or weed control at 31 g/ha ([4]; pre-emergence, Preemergence): 80%; pest or weed control at 62 g/ha ([4]; pre-emergence, Preemergence): 95%; pest or weed control at 125 g/ha ([4]; pre-emergence, Preemergence): 100%; pest or weed control at 16 g/ha ([5]; post-emergence, Postemergence): 90%; pest or weed control at 31 g/ha ([5]; post-emergence, Postemergence): 90%; pest or weed control at 62 g/ha ([5]; post-emergence, Postemergence): 95%; pest or weed control at 125 g/ha ([5]; post-emergence, Postemergence): 95%; pest or weed control at 16 g/ha ([5]; pre-emergence, Preemergence): 95%; pest or weed control at 31 g/ha ([5]; pre-emergence, Preemergence): 100%; pest or weed control at 62 g/ha ([5]; pre-emergence, Preemergence): 100%; pest or weed control at 125 g/ha ([5]; pre-emergence, Preemergence): 100%; pest or weed control at 16 g/ha ([6]; post-emergence, Postemergence): 15%; pest or weed control at 31 g/ha ([6]; post-emergence, Postemergence): 30%; pest or weed control at 62 g/ha ([6]; post-emergence, Postemergence): 40%; pest or weed control at 125 g/ha ([6]; post-emergence, Postemergence): 75%; pest or weed control at 16 g/ha ([6]; pre-emergence, Preemergence): 5%; pest or weed control at 31 g/ha ([6]; pre-emergence, Preemergence): 15%; pest or weed control at 62 g/ha ([6]; pre-emergence, Preemergence): 15%; pest or weed control at 125 g/ha ([6]; pre-emergence, Preemergence): 65%; pest or weed control at 16 g/ha ([7]; post-emergence, Postemergence): 10%; pest or weed control at 31 g/ha ([7]; post-emergence, 31 g ai/ha, Postemergence): 20%; pest or weed control at 62 g/ha ([7]; post-emergence, Postemergence): 30%; pest or weed control at 125 g/ha ([7]; post-emergence, Postemergence): 65%; pest or weed control at 16 g/ha ([7]; pre-emergence, Preemergence): 0%; pest or weed control at 62 g/ha ([7]; pre-emergence, Preemergence): 50%; pest or weed control at 125 g/ha ([7]; pre-emergence, Preemergence): 50%; pest or weed control at 16 g/ha ([8]; post-emergence, Postemergence): 10%; pest or weed control at 31 g/ha ([8]; post-emergence, Postemergence): 15%; pest or weed control at 62 g/ha ([8]; post-emergence, Postemergence): 20%; pest or weed control at 125 g/ha ([8]; post-emergence, Postemergence): 40%; pest or weed control at 16 g/ha ([8]; pre-emergence, Preemergence): 0%; pest or weed control at 31 g/ha ([8]; pre-emergence, Preemergence): 0%; pest or weed control at 62 g/ha ([8]; pre-emergence, Preemergence): 10%; pest or weed control at 125 g/ha ([8]; pre-emergence, Preemergence): 20%; pest or weed control at 16 g/ha ([9]; post-emergence, Postemergence): 15%; pest or weed control at 31 g/ha ([9]; post-emergence, Postemergence): 20%; pest or weed control at 62 g/ha ([9]; post-emergence, Postemergence): 25%; pest or weed control at 125 g/ha ([9]; post-emergence, Postemergence): 65%; pest or weed control at 16 g/ha ([9]; pre-emergence, Preemergence): 20%; pest or weed control at 31 g/ha ([9]; pre-emergence, Preemergence): 40%; pest or weed control at 62 g/ha ([9]; pre-emergence, Preemergence): 65%; pest or weed control at 125 g/ha ([9]; pre-emergence, Preemergence): 85%; pest or weed control at 16 g/ha ([10]; post-emergence, Postemergence): 25%; pest or weed control at 31 g/ha ([10]; post-emergence, Postemergence): 35%; pest or weed control at 62 g/ha ([10]; post-emergence, Postemergence): 45%; pest or weed control at 125 g/ha ([10]; post-emergence, Postemergence): 55%; pest or weed control at 16 g/ha ([10]; pre-emergence, Preemergence): 0%; pest or weed control at 31 g/ha ([10]; pre-emergence, Preemergence): 0%; pest or weed control at 62 g/ha ([10]; pre-emergence, Preemergence): 50%; pest or weed control at 125 g/ha ([10]; pre-emergence, Preemergence): 90%; pest or weed control at 16 g/ha ([11]; post-emergence, Postemergence): 35%; pest or weed control at 31 g/ha ([11]; post-emergence, Postemergence): 35%; pest or weed control at 62 g/ha ([11]; post-emergence, Postemergence): 65%; pest or weed control at 125 g/ha ([11]; post-emergence, Postemergence): 70%; pest or weed control at 16 g/ha ([11]; pre-emergence, Preemergence): 15%; pest or weed control at 31 g/ha ([11]; pre-emergence, Preemergence): 20%; pest or weed control at 62 g/ha ([11]; pre-emergence, Preemergence): 40%; pest or weed control at 125 g/ha ([11]; pre-emergence, Preemergence): 100%
